From US5530126A, “Process for the preparation of substituted 6-(pyrazol-3yl)-1,4-benzoxazin-3-ones” (Monsanto Company, priority 1994, dated 1996)

Experiments:
Type in all cases: in vivo
[1] = test system: Yellow nutsedge; assay: Post-emergence herbicide test; details: Cyperus, read-out: % plant inhibition (Yens); for inhibition at 1120 g/ha: 1.12 kg/ha
Summary of the method: (§1)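 Greenhouse-raised seedlings and perennial propagule shoots, aged 2–3 weeks, receive an atomized spray at 10 psig. The solution or suspension carries roughly 0.4% emulsifier and is applied at 200 gallons/acre; injury is rated as % inhibition after about 11 days.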

[2] = test system: Morningglory; assay: Post-emergence herbicide test; details: Ipomoea, read-out: % plant inhibition (Mogl); for inhibition at 1120 g/ha: 1.12 kg/ha
Summary of the method: as §1

[3] = test system: Barnyardgrass; assay: Post-emergence herbicide test; details: Echinochloa crus-galli, read-out: % plant inhibition (Bygr); for inhibition at 1120 g/ha: 1.12 kg/ha
Summary of the method: as §1

[4] = test system: Velvetleaf; assay: Post-emergence herbicide test; details: Abutilon theophrasti, read-out: % plant inhibition (Vele); for inhibition at 1120 g/ha: 1.12 kg/ha
Summary of the method: as §1

[5] = test system: Downy Brome; assay: Post-emergence herbicide test; details: Bromus tectorum, read-out: % plant inhibition (Dobr); for inhibition at 1120 g/ha: 1.12 kg/ha
Summary of the method: as §1

[6] = test system: Wild buckwheat; assay: Post-emergence herbicide test; details: Fallopia convolvulus, read-out: % plant inhibition (Wibw); for inhibition at 1120 g/ha: 1.12 kg/ha
Summary of the method: as §1

[7] = test system: Seedling johnsongrass; assay: Post-emergence herbicide test; details: Sorghum halepense, read-out: % plant inhibition (Sejg); for inhibition at 1120 g/ha: 1.12 kg/ha
Summary of the method: as §1

[8] = test system: Cocklebur; assay: Post-emergence herbicide test; details: Xanthium strumarium, read-out: % plant inhibition (Cobu); for inhibition at 1120 g/ha: 1.12 kg/ha
Summary of the method: as §1

[9] = test system: Indian Mustard; assay: Post-emergence herbicide test; details: Brassica juncea, read-out: % plant inhibition (Inmu); for inhibition at 1120 g/ha: 1.12 kg/ha
Summary of the method: as §1

[10] = test system: Annual bluegrass; assay: Post-emergence herbicide test; details: read-out: % plant inhibition (Anbg); for inhibition at 1120 g/ha: 1.12 kg/ha
Summary of the method: as §1

[11] = test system: Yellow nutsedge; assay: Pre-emergence herbicide test; details: Cyperus, read-out: % plant inhibition (Yens); for inhibition at 1120 g/ha: 1.12 kg/ha
Summary of the method: (§2)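 Known dose of active, dissolved or suspended in acetone or water, delivered onto seed bed prior to emergence and buried under untreated topsoil. Greenhouse incubation with watering from below. Percentage inhibition rated 10-14 days after seeding.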

[12] = test system: Morningglory; assay: Pre-emergence herbicide test; details: Ipomoea, read-out: % plant inhibition (Mogl); for inhibition at 1120 g/ha: 1.12 kg/ha
Summary of the method: as §2

[13] = test system: Barnyardgrass; assay: Pre-emergence herbicide test; details: Echinochloa crus-galli, read-out: % plant inhibition (Bygr); for inhibition at 1120 g/ha: 1.12 kg/ha
Summary of the method: as §2

[14] = test system: Velvetleaf; assay: Pre-emergence herbicide test; details: Abutilon theophrasti, read-out: % plant inhibition (Vele); for inhibition at 1120 g/ha: 1.12 kg/ha
Summary of the method: as §2

[15] = test system: Downy Brome; assay: Pre-emergence herbicide test; details: Bromus tectorum, read-out: % plant inhibition (Dobr); for inhibition at 1120 g/ha: 1.12 kg/ha
Summary of the method: as §2

[16] = test system: Wild buckwheat; assay: Pre-emergence herbicide test; details: Fallopia convolvulus, read-out: % plant inhibition (Wibw); for inhibition at 1120 g/ha: 1.12 kg/ha
Summary of the method: as §2

[17] = test system: Seedling johnsongrass; assay: Pre-emergence herbicide test; details: Sorghum halepense, read-out: % plant inhibition (Sejg); for inhibition at 1120 g/ha: 1.12 kg/ha
Summary of the method: as §2

[18] = test system: Cocklebur; assay: Pre-emergence herbicide test; details: Xanthium strumarium, read-out: % plant inhibition (Cobu); for inhibition at 1120 g/ha: 1.12 kg/ha
Summary of the method: as §2

[19] = test system: Indian Mustard; assay: Pre-emergence herbicide test; details: Brassica juncea, read-out: % plant inhibition (Inmu); for inhibition at 1120 g/ha: 1.12 kg/ha
Summary of the method: as §2

[20] = test system: Annual bluegrass; assay: Pre-emergence herbicide test; details: read-out: % plant inhibition (Anbg); for inhibition at 1120 g/ha: 1.12 kg/ha
Summary of the method: as §2

Row | Structure (SMILES) | inhibition at 1120 g/ha [1] [%] | inhibition at 1120 g/ha [2] [%] | inhibition at 1120 g/ha [3] [%] | inhibition at 1120 g/ha [4] [%] | inhibition at 1120 g/ha [5] [%] | inhibition at 1120 g/ha [6] [%] | inhibition at 1120 g/ha [7] [%] | inhibition at 1120 g/ha [8] [%] | inhibition at 1120 g/ha [9] [%] | inhibition at 1120 g/ha [10] [%] | inhibition at 1120 g/ha [11] [%] | inhibition at 1120 g/ha [12] [%] | inhibition at 1120 g/ha [13] [%] | inhibition at 1120 g/ha [14] [%] | inhibition at 1120 g/ha [15] [%] | inhibition at 1120 g/ha [16] [%] | inhibition at 1120 g/ha [17] [%] | inhibition at 1120 g/ha [18] [%] | inhibition at 1120 g/ha [19] [%] | inhibition at 1120 g/ha [20] [%] | other results
1 | Cn1nc(-c2cc(C=NOCC(=O)O)c(Cl)cc2F)c(Cl)c1C(F)(F)F [Compound 130, ((((2-chloro-5-(4-chloro-1-methyl-5-(trifluoromethyl)-1H-pyrazol-3-yl)-4-fluorophenyl)methylene)amino)oxy)acetic acid] | 20 | 100 | 40 | 100 | 30 | 100 | 70 | 100 | 40 | 20 | 20 | 100 | 30 | 100 | 30 | 90 | 70 | 90 | 100 | 0 | –
2 | Cn1nc(-c2cc(C=NOCC(N)=O)c(Cl)cc2F)c(Cl)c1C(F)(F)F [Compound 131] | 30 | 100 | 0 | 100 | 20 | 100 | 50 | 100 | 40 | 20 | 20 | 100 | 40 | 100 | 30 | 100 | 70 | 80 | 90 | 0 | –
3 | Cn1nc(-c2cc(C(Br)Br)c(Cl)cc2F)c(Cl)c1C(F)(F)F [Compound 132, 4-chloro-3-[4-chloro-5-(dibromomethyl)-2-fluorophenyl]-1-methyl-5-(trifluoromethyl)-1H-pyrazole] | – | – | – | – | – | – | – | – | – | – | – | – | – | – | – | – | – | – | – | – | inhibition at 11210 g/ha ([1]; 11.21 kg/ha): 30%; inhibition at 11210 g/ha ([2]; 11.21 kg/ha): 100%; inhibition at 11210 g/ha ([3]; 11.21 kg/ha): 100%; inhibition at 11210 g/ha ([4]; 11.21 kg/ha): 100%; inhibition at 11210 g/ha ([5]; 11.21 kg/ha): 80%; inhibition at 11210 g/ha ([6]; 11.21 kg/ha): 100%; inhibition at 11210 g/ha ([7]; 11.21 kg/ha): 100%; inhibition at 11210 g/ha ([8]; 11.21 kg/ha): 100%; inhibition at 11210 g/ha ([9]; 11.21 kg/ha): 100%; inhibition at 11210 g/ha ([10]; 11.21 kg/ha): 60%; inhibition at 11210 g/ha ([11]; 11.21 kg/ha): 30%; inhibition at 11210 g/ha ([12]; 11.21 kg/ha): 100%; inhibition at 11210 g/ha ([13]; 11.21 kg/ha): 90%; inhibition at 11210 g/ha ([14]; 11.21 kg/ha): 100%; inhibition at 11210 g/ha ([15]; 11.21 kg/ha): 80%; inhibition at 11210 g/ha ([16]; 11.21 kg/ha): 100%; inhibition at 11210 g/ha ([17]; 11.21 kg/ha): 70%; inhibition at 11210 g/ha ([18]; 11.21 kg/ha): 70%; inhibition at 11210 g/ha ([19]; 11.21 kg/ha): 90%; inhibition at 11210 g/ha ([20]; 11.21 kg/ha): 60%
4 | Cn1nc(-c2cc(C=O)c(Cl)cc2F)c(Cl)c1C(F)(F)F [Compound 133, 2-chloro-5-[4-chloro-1-methyl-5-(trifluoromethyl)-1H-pyrazol-3-yl]-4-fluorobenzaldehyde] | 40 | 100 | 50 | 100 | 20 | 80 | 50 | 100 | 40 | 0 | 20 | 70 | 80 | 100 | 0 | 70 | 80 | 40 | 100 | 20 | –
5 | Cn1nc(-c2cc(C(=O)OC3CCCCC3)c(Cl)cc2F)c(Cl)c1C(F)(F)F [Compound 134] | 20 | 100 | 100 | 100 | 100 | 100 | 100 | 100 | 100 | 100 | 0 | 20 | 10 | 70 | 70 | 90 | 40 | 30 | 60 | 50 | –
6 | CCC(C)OC(=O)c1cc(-c2nn(C)c(C(F)(F)F)c2Cl)c(F)cc1Cl (stereo not drawn) [Compound 136] | 10 | 100 | 100 | 100 | 100 | 100 | 100 | 100 | 100 | 100 | 0 | 80 | 70 | 90 | 100 | 100 | 90 | 80 | 90 | 90 | –
7 | CCOC(=O)C(C)OC(=O)c1cc(-c2nn(C)c(C(F)(F)F)c2Cl)c(F)cc1Cl (stereo not drawn) [Compound 138, 2-Chloro-5-(4-chloro-1-methyl-5-(trifluoromethyl)-1H-pyrazol-3-yl)-4-fluorobenzoic acid, 2-ethoxy-1-methyl-2-oxoethyl ester] | 20 | 100 | 100 | 100 | 100 | 100 | 100 | 100 | 100 | 100 | 20 | 100 | 50 | 100 | 90 | 100 | 30 | 100 | 100 | 40 | –
8 | CC(C)COC(=O)c1cc(-c2nn(C)c(C(F)(F)F)c2Cl)c(F)cc1Cl [Compound 139] | 10 | 100 | 100 | 100 | 100 | 100 | 100 | 90 | 100 | 90 | 20 | 70 | 30 | 100 | 80 | 90 | 40 | 70 | 90 | 20 | –
9 | CCC(C)COC(=O)c1cc(-c2nn(C)c(C(F)(F)F)c2Cl)c(F)cc1Cl (stereo not drawn) [Compound 140] | 10 | 100 | 100 | 100 | 100 | 90 | 100 | 100 | 90 | 100 | 0 | 70 | 0 | 90 | 60 | 70 | 70 | 80 | 70 | 30 | –
